Experimental data: patent US20170027172A1, “USE OF SUBSTITUTE OXO TETRAHYDROQUINOLINE SULFONAMIDES OR SALTS THEREOF FOR RAISING STRESS TOLERANCE OF PLANTS” (BAYER CROPSCIENCE AKTIENGESELLSCHAFT, priority 2014, published 2017)

Tests used:
Triticum aestivum [1] = assay: Drought stress greenhouse test Part C, visual scoring vs stressed control plants; type: in vivo; settings: efficacy range of 3-4 pots
Method: Seeds of monocotyledonous and dicotyledonous crop plants were sown in sandy loam in plastic or wood-fiber pots, covered with soil or sand and cultivated in a greenhouse under good growth conditions. The trial plants were treated at the early leaf stage (BBCH10-BBCH13). To assure uniform water supply before commencement of stress, the potted plants were supplied with water by dam irrigation prior to substance application. The inventive compounds were first formulated as wettable powders (WP) or dissolved in a solvent mixture. The further dilution was effected with water supplemented with 0.2% wetting agent (e.g. agrotin). The finished spray liquor was sprayed onto the green parts of the plant at an equivalent water application rate of 600 l/ha. Substance application was followed immediately by stress treatment of the plants. For this purpose, the wood-fiber pots were transferred in plastic inserts in order to prevent them from subsequently drying out too quickly. Drought stress was induced by gradual drying out under the following conditions: “Day”: 14 hours with illumination at 26-30° C. “Night”: 10 hours without illumination at 18-20° C. The duration of the respective stress phases was guided mainly by the condition of the stressed control plants. It was ended (by re-irrigating and transfer to a greenhouse with good growth conditions) as soon as irreversible damage was observed on the stressed control plants. The end of the stress phase was followed by an about 4-7-day recovery phase, during which the plants were once again kept under good growth conditions in a greenhouse. The duration of the recovery phase was guided mainly by when the trial plants had attained a state which enabled visual scoring of potential effects, and was therefore variable. Once this juncture had been reached, the appearance of the plants treated with test substances was recorded in comparison to the stressed control plants by the following categories: [table] For each substance and dosage, 3-4 pots were treated and evaluated. […] BRSNS=Brassica napus TRZAS=Triticum aestivum

Triticum aestivum [2] = assay: Drought stress test on wheat Part D, reduction in damage intensity from fresh weights; type: in vivo; settings: efficacy = reduction in damage intensity (fresh weight) under drought stress, 250 g/ha, at least three repeats
Excerpt: Wheat grains were sown in a standardized number in sandy loam soil plastic pots, covered with soil or sand and grown in a greenhouse under good growth conditions. Pots with uneven degrees of emergence were excluded prior to the start of the trial. The treatment with test substances was effected at the early leaf stage (BBCH10-BBCH13). To assure uniform water supply, the potted plants were supplied with water by dam irrigation prior to substance application. The inventive compounds were first formulated as wettable powders (WP) or dissolved in a solvent mixture. The further dilution was effected with water supplemented with 0.2% wetting agent (e.g. agrotin). The finished spray liquor was sprayed onto the green parts of the plant at an equivalent water application rate of 600 l/ha. Substance application was followed immediately by stress treatment of the plants. Drought stress was induced by gradual drying out under the following conditions: “Day”: 14 hours with illumination at 26-30° C. “Night”: 10 hours without illumination at 18-20° C. The duration of the respective stress phases was guided mainly by the condition of the stressed control plants. It was ended (by re-irrigating and transfer to a greenhouse with good growth conditions) as soon as irreversible damage was observed on the stressed control plants. The end of the stress phase was followed by an about 7-day recovery phase, during which the plants were once again kept under good growth conditions in a greenhouse. The exact duration of the recovery phase was variable for reasons related to the trial. At the end of the recovery phase, the fresh weights of the plant parts above ground were determined. By comparison with unstressed control plants which were kept under good growth conditions over the entire duration of the trial, percentage damage intensities were first calculated from the fresh weight values. The reduction in damage intensity resulting from treatment with test substance was then calculated by the following formula: [formula] EF: Efficacy DIs: Damage intensity of the stressed control plants DIt: Damage intensity of the stressed plants treated with test compound The values reported in table D-1 below are results from at least three repeats. BRSNS=Brassica napus TRZAS=Triticum aestivum

Triticum aestivum [3] = assay: Drought stress greenhouse test Part A, visual scoring vs stressed control plants; type: in vivo; parameters: key: 0: no effect; 10: slight positive effect; 20: clear positive effect; 30: strong positive effect; settings: average score of 3 pots
Method: Seeds of monocotyledonous and dicotyledonous crop plants were sown in sandy loam in plastic pots, covered with soil or sand and cultivated in a greenhouse under good growth conditions. The trial plants were treated at the early leaf stage (BBCH10-BBCH13). To assure uniform water supply before commencement of stress, the potted plants were supplied with water by dam irrigation prior to substance application.
The inventive compounds formulated in the form of wettable powders (WP) were sprayed onto the green parts of the plants as an aqueous suspension at an equivalent water application rate of 600 l/ha with addition of 0.2% wetting agent (e.g. agrotin). Substance application was followed immediately by stress treatment of the plants.
Drought stress was induced by gradual drying out under the following conditions:
“Day”: 14 hours with illumination at ˜26-30° C. “Night”: 10 hours without illumination at ˜18-20° C.
The duration of the respective stress phases was guided mainly by the condition of the stressed control plants. It was ended (by re-irrigating and transfer to a greenhouse with good growth conditions) as soon as irreversible damage was observed on the stressed control plants.
The end of the stress phase was followed by an about 4-7-day recovery phase, during which the plants were once again kept under good growth conditions in a greenhouse. The duration of the recovery phase was guided mainly by when the trial plants had attained a state which enabled visual scoring of potential effects, and was therefore variable.
Once this juncture had been reached, the appearance of the plants treated with test substances was recorded in comparison to the stressed control plants by the following categories:
In order to rule out any influence on the effects observed by any fungicidal or insecticidal action of the test compounds, it was additionally ensured that the tests proceeded without fungal infection or insect infestation.
In each test, for each crop and dosage, plants in 3 pots were treated and evaluated separately. The values reported in Tables A-1 to A-2 below for the effects obtained are averages from the scores obtained.
BRSNS=Brassica napus TRZAS=Triticum aestivum

[4] = biological target: T1, phosphatase ABI1 via the co-regulator RCAR11/PYR1 (Arabidopsis thaliana, UniProt O49686+P49597); assay: In vitro inhibition of the phosphatase ABI1 via the co-regulator RCAR11/PYR1, MUP dephosphorylation; type: biochemical; parameters: dose or concentration left out as unconfirmed; settings: in a solution of DMSO and water; fluorescence at 460 nm
T1 sequence (O49686 1-191): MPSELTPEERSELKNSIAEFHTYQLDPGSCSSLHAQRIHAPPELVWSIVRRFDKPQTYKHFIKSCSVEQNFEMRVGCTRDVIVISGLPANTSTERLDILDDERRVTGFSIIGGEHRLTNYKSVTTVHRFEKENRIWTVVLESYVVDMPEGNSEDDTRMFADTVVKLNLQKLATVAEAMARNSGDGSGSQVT
T1 sequence (P49597 1-434): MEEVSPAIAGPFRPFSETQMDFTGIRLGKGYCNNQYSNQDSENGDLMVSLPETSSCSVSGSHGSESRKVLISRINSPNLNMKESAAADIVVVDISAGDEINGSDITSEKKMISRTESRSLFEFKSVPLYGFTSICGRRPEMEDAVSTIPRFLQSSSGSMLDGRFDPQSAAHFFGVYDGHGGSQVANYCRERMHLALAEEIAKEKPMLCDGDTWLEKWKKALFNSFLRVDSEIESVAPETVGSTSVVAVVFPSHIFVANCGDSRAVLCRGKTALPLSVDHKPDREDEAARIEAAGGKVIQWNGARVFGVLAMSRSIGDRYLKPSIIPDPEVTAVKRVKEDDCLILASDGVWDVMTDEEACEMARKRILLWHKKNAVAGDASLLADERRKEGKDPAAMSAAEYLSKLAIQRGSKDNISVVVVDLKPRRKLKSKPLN
Outline: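 Arabidopsis ABI1 (0.15 μg/well) with RCAR11/PYR1 (0.30 μg/well) in Tris-HCl pH 8, NaCl, MnCl2, DTT, Tween20; MUP substrate, 20 min at 35 °C, fluorescence ex 340/em 460 nm. Compounds tested at 5 mM in DMSO/water, optionally pre-treated with porcine liver esterase; inhibition banded ≥90/70/50/30%.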

| Compound | Effect (TRZAS) (Triticum aestivum [1]; spray application 25 g/ha) | Effect (TRZAS) (Triticum aestivum [1]; spray application 250 g/ha) | also measured |
| --- | --- | --- | --- |
| O=C1CCc2cc(NS(=O)(=O)Cc3ccc(C(F)(F)F)cc3)ccc2N1CC12CC3CC(CC(C3)C1)C2 [A46-178] | 20-30 |  |  |
| CCOC(=O)CCN1C(=O)CC(C)(C)c2cc(NS(=O)(=O)Cc3ccc(C#N)cc3)ccc21 [B52-181] |  | 10-20 | EF [%] (TRZAS) (Triticum aestivum [2]): 14% |
| CC1(C)CC(=O)N(CC(F)(F)F)c2ccc(NS(=O)(=O)c3ccc(C#N)cc3)cc21 [B2-45] |  |  | Effect (TRZAS) (Triticum aestivum [3]; spray application 25 g/ha): 20 |
| COC(=O)CN1C(=O)CCc2cc(NS(=O)(=O)Cc3cccc(Br)c3)ccc21 [A50-173] | 10-20 |  |  |
| COC(=O)CCN1C(=O)CC(C)(C)c2cc(NS(=O)(=O)Cc3ccc(Br)cc3)ccc21 [B51-172] | 10-20 |  |  |
| Cc1ccc(CS(=O)(=O)Nc2ccc3c(c2)CCC(=O)N3CC2CC2)cc1 [A19-152] |  |  | ABI1 inhibition [4]: ++++ (inhibition≧90%); Effect (TRZAS) (Triticum aestivum [3]; spray application 25 g/ha): 20 |
| COCCN1C(=O)CC2(CCCCC2)c2cc(NS(=O)(=O)Cc3ccc(C(F)(F)F)cc3)ccc21 [I5-178] |  | 10-30 |  |
| COC(=O)CN1C(=O)CC(C)(C)c2cc(NS(=O)(=O)Cc3ccc(Cl)cc3)ccc21 [B50-165] |  | 10-20 |  |
| COC(=O)CN1C(=O)CCc2cc(NS(=O)(=O)Cc3ccc([N+](=O)[O-])cc3)ccc21 [A50-175] | 10-20 |  | ABI1 inhibition [4]: +++ (90%>inhibition≧70%) |
| COC(=O)CCN1C(=O)CC(C)(C)c2cc(NS(=O)(=O)Cc3ccc(C)cc3)ccc21 [B51-152] |  | 10-20 | EF [%] (TRZAS) (Triticum aestivum [2]): 16% |
| CCC1(C)CC(=O)N(CCOC)c2ccc(NS(=O)(=O)Cc3cccc(Cl)c3)cc21 (stereo not shown) [F7-166] |  | 10-20 |  |
| O=C1CC2(CCC2)c2cc(NS(=O)(=O)Cc3ccc(Cl)cc3)ccc2N1CC1CC1 [J3-165] |  | 10-20 |  |
| CCC1(C)CC(=O)N(CC2CC2)c2ccc(NS(=O)(=O)Cc3ccc(F)cc3)cc21 (stereo not shown) [F3-158] | 10-20 |  |  |
| COCCN1C(=O)CC2(CCCCC2)c2cc(NS(=O)(=O)Cc3cccc(Cl)c3)ccc21 [I5-166] |  | 10-20 |  |
| COCCN1C(=O)CCc2cc(NS(=O)(=O)Cc3ccc(Cl)cc3)ccc21 [A38-165] |  | 10-30 | ABI1 inhibition [4]: ++++ (inhibition≧90%) |
| CCC1(C)CC(=O)N(CCOC)c2ccc(NS(=O)(=O)Cc3ccc(Cl)cc3)cc21 (racemic) [F7-165] | 10-20 |  |  |
| Cc1ccc(CS(=O)(=O)Nc2ccc3c(c2)CCC(=O)N3CCSC(F)(F)F)cc1 [A42-152] | 10-20 |  | ABI1 inhibition [4]: +++ (90%>inhibition≧70%) |
| CCC1(C)CC(=O)N(CCOC)c2ccc(NS(=O)(=O)Cc3ccccc3)cc21 (stereo not shown) [F7-151] | 10-20 |  |  |
| CC1(C)CC(=O)N(CC(F)(F)F)c2ccc(NS(=O)(=O)CCc3ccc(Cl)cc3)cc21 [B2-291] |  |  | Effect (TRZAS) (Triticum aestivum [3]; spray application 25 g/ha): 20; Effect (TRZAS) (Triticum aestivum [3]; spray application 250 g/ha): 30 |
| COC(=O)CCN1C(=O)CCc2cc(NS(=O)(=O)Cc3ccc(Br)cc3)ccc21 [A51-172] |  | 10-20 | ABI1 inhibition [4]: ++++ (inhibition≧90%) |
| COC(=O)CN1C(=O)CCc2cc(NS(=O)(=O)Cc3ccc(C)cc3)ccc21 [A50-152] |  | 10-20 | ABI1 inhibition [4]: ++++ (inhibition≧90%) |
| CCC1(C)CC(=O)N(CCOC)c2ccc(NS(=O)(=O)Cc3ccc(F)cc3)cc21 (stereo not shown) [F7-158] |  | 10-20 |  |
| COC(=O)CN1C(=O)CCc2cc(NS(=O)(=O)Cc3cccc(C#N)c3)ccc21 [A50-182] |  | 10-20 |  |
| N#Cc1cccc(CS(=O)(=O)Nc2ccc3c(c2)CCC(=O)N3CC2CC2)c1 [A19-182] |  |  | ABI1 inhibition [4]: ++ (70%>inhibition≧50%); Effect (TRZAS) (Triticum aestivum [3]; spray application 25 g/ha): 20; Effect (TRZAS) (Triticum aestivum [3]; spray application 250 g/ha): 20-30 |
| CC1(C)CC(=O)N(CC(F)(F)F)c2ccc(NS(=O)(=O)Cc3ccc(Cl)cc3)cc21 [B2-165] |  |  | Effect (TRZAS) (Triticum aestivum [3]; spray application 25 g/ha): 20 |
| CCC1(C)CC(=O)N(CC2CC2)c2ccc(NS(=O)(=O)Cc3cccc(Cl)c3)cc21 (stereo not shown) [F3-166] |  | 10-20 |  |
